The record followed here is ChEMBL document CHEMBL1201862, “PubChem BioAssay data set” (2004).

The target in assay [1] is T1, Heat shock factor protein 1 (Mus musculus, UniProt P38532).
T1 sequence (P38532 whole entry): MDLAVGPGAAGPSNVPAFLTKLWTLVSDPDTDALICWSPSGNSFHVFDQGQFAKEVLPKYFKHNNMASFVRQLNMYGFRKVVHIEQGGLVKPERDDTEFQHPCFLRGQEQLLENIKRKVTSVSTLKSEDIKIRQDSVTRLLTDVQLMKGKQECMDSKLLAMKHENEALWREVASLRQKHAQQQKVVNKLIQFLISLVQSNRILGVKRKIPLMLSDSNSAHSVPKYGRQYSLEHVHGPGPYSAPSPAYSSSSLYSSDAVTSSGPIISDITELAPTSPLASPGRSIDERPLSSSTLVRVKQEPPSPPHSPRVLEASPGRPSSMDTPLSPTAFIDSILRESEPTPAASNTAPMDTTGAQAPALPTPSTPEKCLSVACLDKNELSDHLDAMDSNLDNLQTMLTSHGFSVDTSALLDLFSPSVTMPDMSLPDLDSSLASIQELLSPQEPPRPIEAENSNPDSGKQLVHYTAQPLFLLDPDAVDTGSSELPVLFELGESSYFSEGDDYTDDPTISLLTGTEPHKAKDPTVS
Put plainly: decrease of HSF1-responsive luciferase luminescence – cell-based, NIH3T3, dose retest, confirmation (AID 2382).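 Also: NIH3T3 fibroblasts with HSF1-driven luciferase reporter stressed by proteasome inhibitor MG132; luminescence from HSF1-driven luciferase expression after 8 hours of MG132 stress.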 The class given is functional.

The target in another assay is T2, Protein RecA (Mycobacterium tuberculosis, UniProt P9WHJ3).
T2 sequence (P9WHJ3 whole entry): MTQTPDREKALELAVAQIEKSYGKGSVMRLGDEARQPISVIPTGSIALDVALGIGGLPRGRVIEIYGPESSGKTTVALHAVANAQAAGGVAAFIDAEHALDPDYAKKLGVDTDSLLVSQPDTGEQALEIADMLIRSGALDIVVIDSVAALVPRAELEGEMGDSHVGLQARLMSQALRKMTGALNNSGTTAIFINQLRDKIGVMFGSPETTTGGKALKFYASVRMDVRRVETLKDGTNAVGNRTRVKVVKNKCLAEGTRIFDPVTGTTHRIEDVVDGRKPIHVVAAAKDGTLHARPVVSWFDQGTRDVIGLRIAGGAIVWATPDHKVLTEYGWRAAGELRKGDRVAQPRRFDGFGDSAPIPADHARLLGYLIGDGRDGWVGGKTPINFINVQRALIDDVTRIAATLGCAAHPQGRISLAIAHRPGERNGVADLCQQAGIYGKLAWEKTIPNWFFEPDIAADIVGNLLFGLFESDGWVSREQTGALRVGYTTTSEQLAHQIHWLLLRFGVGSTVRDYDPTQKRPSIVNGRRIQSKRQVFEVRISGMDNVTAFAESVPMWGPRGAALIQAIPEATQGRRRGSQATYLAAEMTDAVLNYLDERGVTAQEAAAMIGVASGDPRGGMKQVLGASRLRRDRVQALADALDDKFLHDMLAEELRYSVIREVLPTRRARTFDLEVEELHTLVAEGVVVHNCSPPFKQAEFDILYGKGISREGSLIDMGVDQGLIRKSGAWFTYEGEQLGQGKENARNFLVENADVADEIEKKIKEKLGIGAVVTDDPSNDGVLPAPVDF
In words: Fluorescence Cell-Free Homogeneous Dose Retest to Identify Inhibitors of RecA-Intein Splicing Activity. [Related pubchem assays (depositor defined):AID2097, AID2223, AID489010, AID492950]. Type of assay: functional.

The target of assay [2] is T3, Replicative DNA helicase DnaB (Mycobacterium tuberculosis, UniProt P9WMR3).
T3 sequence (P9WMR3 whole entry): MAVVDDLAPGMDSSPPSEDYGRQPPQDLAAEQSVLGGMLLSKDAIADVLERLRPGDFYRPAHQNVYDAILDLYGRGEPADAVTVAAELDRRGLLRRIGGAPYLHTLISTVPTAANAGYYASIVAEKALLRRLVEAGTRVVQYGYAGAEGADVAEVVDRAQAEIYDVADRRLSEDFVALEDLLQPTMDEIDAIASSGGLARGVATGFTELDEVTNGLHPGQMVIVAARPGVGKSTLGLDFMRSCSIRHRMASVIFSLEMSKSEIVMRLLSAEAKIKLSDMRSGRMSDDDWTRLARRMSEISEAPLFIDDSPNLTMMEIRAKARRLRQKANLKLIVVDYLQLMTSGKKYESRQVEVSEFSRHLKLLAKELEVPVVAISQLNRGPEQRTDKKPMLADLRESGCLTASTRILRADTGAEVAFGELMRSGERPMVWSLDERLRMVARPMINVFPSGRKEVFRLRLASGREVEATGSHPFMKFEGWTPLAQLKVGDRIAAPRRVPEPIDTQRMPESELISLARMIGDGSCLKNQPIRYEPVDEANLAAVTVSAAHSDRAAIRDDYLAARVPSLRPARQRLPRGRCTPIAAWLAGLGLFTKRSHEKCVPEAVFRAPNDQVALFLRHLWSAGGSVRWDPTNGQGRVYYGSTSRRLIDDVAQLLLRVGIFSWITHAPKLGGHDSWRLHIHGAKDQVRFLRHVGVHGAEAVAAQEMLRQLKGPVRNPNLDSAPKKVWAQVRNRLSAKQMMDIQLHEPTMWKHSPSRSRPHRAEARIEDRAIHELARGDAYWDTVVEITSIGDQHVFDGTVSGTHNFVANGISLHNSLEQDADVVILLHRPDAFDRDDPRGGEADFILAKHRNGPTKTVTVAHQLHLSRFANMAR
In words: DnaB intein splicing inhibitors, dose response, biochemical, cell-free fluorescence (AID 449749). The class given is functional.

For assay [3], the target named is FAD-linked sulfhydryl oxidase ALR (Homo sapiens, UniProt P55789). In words: ALR-catalysed DTT oxidation blockers – biochemical, H2O2 detection, luminescence, cherry-pick, dose response (AID 493248).
The next assay concerns the target Cytochrome P450 3A4 (Homo sapiens, UniProt P08684).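 Also: CYP3A4 tested as one member of a cytochrome P450 panel screen.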
In the next assay the target is Cytochrome P450 2C9 (Homo sapiens, UniProt P11712).
Another assay deals with T4, Cytochrome P450 1A2 (Homo sapiens, UniProt P05177).
T4 sequence (P05177 whole entry): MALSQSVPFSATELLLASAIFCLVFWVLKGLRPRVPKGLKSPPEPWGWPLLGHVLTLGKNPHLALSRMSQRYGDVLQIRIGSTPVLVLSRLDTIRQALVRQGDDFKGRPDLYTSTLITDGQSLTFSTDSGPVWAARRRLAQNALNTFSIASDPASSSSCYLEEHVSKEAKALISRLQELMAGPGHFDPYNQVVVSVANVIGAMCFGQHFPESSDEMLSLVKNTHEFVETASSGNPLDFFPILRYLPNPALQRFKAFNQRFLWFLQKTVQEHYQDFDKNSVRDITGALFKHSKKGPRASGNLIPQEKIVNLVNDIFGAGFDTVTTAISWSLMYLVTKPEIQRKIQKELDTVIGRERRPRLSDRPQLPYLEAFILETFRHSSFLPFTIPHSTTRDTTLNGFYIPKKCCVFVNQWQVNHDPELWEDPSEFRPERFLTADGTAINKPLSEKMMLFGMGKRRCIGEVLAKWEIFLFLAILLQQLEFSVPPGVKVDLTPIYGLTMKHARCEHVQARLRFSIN

Assay [4] is described as follows: reduction of Shn3 3'UTR-driven luciferase in osteoblasts – cell-based, Clone20 osteoblasts, firefly luciferase, cherry-picked, dose response (AID 624132).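 Also: firefly luciferase luminescence from reporter carrying the Shn3 3'UTR in osteoblasts.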 Type of assay: functional.

Structures are written as SMILES. Calls of active or inactive are those of the source. Some results are limits rather than exact numbers.

As a reminder, the EC50 is the concentration that produces a half-maximal response. A word on the AC50: it is the concentration giving half of the maximal activity seen.

FAD-linked sulfhydryl oxidase ALR, sequence (P55789 whole entry): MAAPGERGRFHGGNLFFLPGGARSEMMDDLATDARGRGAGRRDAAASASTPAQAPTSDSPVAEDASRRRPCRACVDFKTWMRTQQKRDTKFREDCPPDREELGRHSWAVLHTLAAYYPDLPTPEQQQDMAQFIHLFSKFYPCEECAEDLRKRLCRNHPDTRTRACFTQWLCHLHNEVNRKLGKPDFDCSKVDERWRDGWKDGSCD
Cytochrome P450 3A4, sequence (P08684 whole entry): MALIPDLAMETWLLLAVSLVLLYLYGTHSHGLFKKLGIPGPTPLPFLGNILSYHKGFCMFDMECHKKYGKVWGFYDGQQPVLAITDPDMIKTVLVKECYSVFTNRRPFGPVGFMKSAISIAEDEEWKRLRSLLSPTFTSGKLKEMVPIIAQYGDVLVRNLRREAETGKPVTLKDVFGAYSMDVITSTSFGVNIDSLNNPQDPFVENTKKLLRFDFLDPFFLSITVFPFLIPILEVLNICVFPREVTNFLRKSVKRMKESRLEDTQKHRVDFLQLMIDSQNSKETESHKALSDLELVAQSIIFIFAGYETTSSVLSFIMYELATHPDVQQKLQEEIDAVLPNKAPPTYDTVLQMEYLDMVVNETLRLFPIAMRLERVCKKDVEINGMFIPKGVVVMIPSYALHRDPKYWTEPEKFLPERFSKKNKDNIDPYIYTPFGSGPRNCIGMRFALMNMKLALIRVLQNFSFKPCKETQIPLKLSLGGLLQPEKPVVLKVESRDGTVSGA
Cytochrome P450 2C9, sequence (P11712 whole entry): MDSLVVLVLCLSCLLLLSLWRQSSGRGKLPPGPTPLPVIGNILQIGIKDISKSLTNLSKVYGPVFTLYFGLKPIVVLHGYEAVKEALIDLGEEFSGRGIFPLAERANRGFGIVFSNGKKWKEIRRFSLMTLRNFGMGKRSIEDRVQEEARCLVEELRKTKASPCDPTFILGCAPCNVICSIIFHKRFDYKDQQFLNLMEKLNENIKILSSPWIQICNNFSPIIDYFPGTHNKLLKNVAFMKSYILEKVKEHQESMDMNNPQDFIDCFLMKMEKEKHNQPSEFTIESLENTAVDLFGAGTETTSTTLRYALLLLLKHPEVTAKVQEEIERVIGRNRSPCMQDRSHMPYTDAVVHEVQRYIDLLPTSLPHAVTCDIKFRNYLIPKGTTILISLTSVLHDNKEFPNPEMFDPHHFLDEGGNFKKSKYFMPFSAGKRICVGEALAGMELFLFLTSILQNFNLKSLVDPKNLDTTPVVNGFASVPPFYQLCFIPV

Turning to `Cc1ccc(NC(=O)CCN2C(=O)C3CCCCC3C2=O)cc1[N+](=O)[O-]` (stereo unspecified), the EC50 in assay [1] was > 195 µM (not active).
With `COc1nc(NC(C)C)nc(N(C#N)CN2C(=O)c3ccccc3S2(=O)=O)n1`, the EC50 on Protein RecA was 26.4 µM (inconclusive). Further, in assay [2], the AC50 is 24.4 µM (active).
With `Cc1ccc(S(=O)(=O)c2ccc(Oc3ccccc3)cc2)cc1`, in assay [1], the 50% effective concentration (EC50) was 21.5 µM (active).
As to `N=C(NC(=O)c1ccc(Cl)cc1)Nc1nc2ccccc2o1`, in assay [1], the EC50 is > 195 µM (not active).
Regarding `CCS(=O)(=O)c1nc(S(=O)(=O)c2ccc(C)cc2)c(N2CCC(C)CC2)s1`, the EC50 in assay [1] is given as > 195 µM (not active).
`O=C(CNC1=NCCC1)c1ccc(Cl)cc1`: on Protein RecA, the EC50 was 23.1 µM (active). Moreover, the half-maximal activity concentration (AC50) in assay [2] is 127 µM (active).
`O=C(CN1CCN(c2ccccc2O)CC1)Nc1cccnc1Cl`: the AC50 in assay [3] is 2.17 µM (active).
Consider `CN(CC(=O)Nc1ccccc1Br)C(=O)c1cccn1C`, for which the EC50 in assay [1] is > 195 µM (not active).
As to `CC(=O)Nc1ccc(S(=O)(=O)NC(C)C(=O)NCCc2ccc(F)cc2)cc1` (stereo unspecified), the AC50 in assay [3] was 0.031 µM (active).
The same measure, in the same setting: the value for `CN(C)NC(=O)c1ccsc1NC(=O)c1ccc(S(=O)(=O)N2CCCC2)cc1` was 0.835 µM (active).
Still for that read-out and setting: to `C/C(=C\c1ccc(N)cc1)c1nc2ccccc2[nH]1` belongs 0.321 µM (active).
Take `COc1cccc(NC(=S)N(CCC(C)C)C2CCN(C(C)=O)CC2)c1`: the EC50 in assay [1] is on record as > 195 µM (not active).
Take `COc1ccccc1/C=C/C1(C(=O)NC2CCCC2)CC(=O)N1c1ccc(C)cc1` (stereo unspecified): the EC50 at Protein RecA is 8.52 µM (active). In addition, in assay [2], the AC50 was 9.29 µM (active).
Take `N[C@@H](CC1=CS(=O)(=O)c2ccc(Cl)cc21)C(=O)O`: the AC50 at Cytochrome P450 3A4 is 5.01 µM (inconclusive); on Cytochrome P450 2C9 it was 6.31 µM (inconclusive); at Cytochrome P450 1A2, 0.398 µM (inconclusive).
On to `COc1ccc2nc(O)c(CN(Cc3cccs3)S(=O)(=O)c3c(C)ccc4nsnc34)cc2c1`, for which the EC50 in assay [1] is 0.503 µM (active).
Consider `Cc1cc(N=Nc2ccc(Cl)cc2)cc(CN2CCCC2)c1O`, for which the EC50 in assay [1] was > 195 µM (not active).
Regarding `CC(=O)c1cccc(NC(=O)CSc2ncc(C(=O)Nc3ccccc3)c(=O)n2C)c1`, at Protein RecA, the 50% effective concentration (EC50) was 1.21 µM (active). In assay [2], the AC50 was > 380 µM (inconclusive).
Take `O=C(Cc1ccccc1F)Nc1nc2ccccc2[nH]1`: the EC50 at Protein RecA is > 380 µM (inconclusive). For the same compound, the AC50 in assay [2] is 0.0489 µM (inconclusive).
Turning to `CCOC(=O)C(C)c1ccc2cc(OC)ccc2c1` (stereo unspecified), the EC50 in assay [1] is reported as > 195 µM (not active).
`CC(C)NS(=O)(=O)c1ccc(OCC(=O)N2CCCC2)c(Cl)c1`: the EC50 in assay [1] is on record as > 195 µM (not active).
Regarding `CN(C)c1ccc(NC(=O)CN2CCc3ccccc3C2)cc1`, the AC50 in assay [3] was 2.23 µM (active).
As to `Fc1ccc(Sc2nc(-c3ccccc3)nnc2C(F)(F)F)cc1`, the EC50 at Protein RecA was 0.66 µM (active). In addition, in assay [2], the AC50 was 1.45 µM (active).
The like results for `COc1ccc(C(=O)Nc2ccncc2)cc1[N+](=O)[O-]` were, in that order, > 380 µM (inactive) and > 380 µM (inactive).
For the compound `O=C(c1ccc2c(c1)OCO2)N1CCC2(CC1)OCCO2`, the EC50 in assay [1] was > 195 µM (not active).
For the compound `CCSc1nnc(NC(=O)c2cccc(S(=O)(=O)N(C)c3ccccc3)c2)s1`, in assay [3], the AC50 was 2.75 µM (active).
On the same count and under the same terms, the value for `CC(NS(C)(=O)=O)C(c1cccs1)N1CCN(c2ccccc2)CC1` (stereo unspecified) was 2.93 µM (active).
`Cc1ccc(C(c2c(C)n[nH]c2O)c2c(C)n[nH]c2O)cc1[N+](=O)[O-]`: the EC50 at Protein RecA is 0.195 µM (active). Moreover, the half-maximal activity concentration (AC50) in assay [2] was 0.442 µM (active).
On to `O=C1CCc2cccc(O)c2N1`, for which the AC50 in assay [4] is 12.2 µM (active).
Consider `CCc1n[nH]c2c1C(c1ccsc1)C(C#N)=C(N)O2` (stereo unspecified), for which the EC50 at Protein RecA was 9.87 µM (active). The AC50 in assay [2] is 14.5 µM (active).
On to `CCC(=O)Oc1oc(-c2ccccc2)nc1/C=N/c1ccccc1OC`, for which the EC50 in assay [1] is 10.3 µM (active).
